Measurements reported in patent EP1591107A1, “Process for the selective increase of a release rate of an active material from a pharmaceutical composition” (Pfizer GmbH Arzneimittelwerk Gödecke, priority 2004, dated 2005).
In brackets after ≈: the same amount, converted by molar mass. Structures can show the parent of a compound that is named as a salt. Where two headings read alike, the source gives them in different places.

Tests used:
[1] = in water, classification taken from the European Pharmacopoeia, cited from earlier work
[2] = Solubility in water (European Pharmacopoeia solubility classes)

What does the source list for COc1ccc([C@@H]2Sc3ccccc3N(CCN(C)C)C(=O)[C@@H]2OC(C)=O)cc1 [diltiazem hydrochloride]?
solubility class according to the European Pharmacopoeia ([1]; hydrochloride): freely soluble; solubility class according to the European Pharmacopoeia ([1]; listed as Diltiazem® hydrochloride, hydrochloride): very soluble

For CC(C)C[C@H](CN)CC(=O)O [pregabalin], which “solubility class according to the European Pharmacopoeia” value [1] is on record?
Its value is “sparingly soluble”.

And the “volume of water in which 1 g is soluble” value ([2]; 1 g of active material, water)?
Its value is 31 mL.

What about the “solubility class according to the definition of the European Pharmacopoeia” value ([2]; class derived from the printed solubility in water) of the same molecule?
The value was “sparingly soluble”.

And the solubility ([2]; water)?
Its solubility is 32.1 mg/mL (≈ 202 mM).
